pIC50: −log10 of the molar value.
What was measured:
[1] = test system: RKO (RKOp27) human colon adenocarcinoma cells; assay: Alamar Blue cell viability assay, anti-proliferative/cytotoxic activity, RKO p27 uninduced; format: cell-based; conditions: RKOp27, 72 h, proliferating cells, absence of the inducer Ponasterone A, 72 hours incubation
Description: The anti-proliferative/cytotoxic activity of the compounds described herein, can be tested on subdlones of RKO (RKOp27) human colon adenocarcinoma cells (Schmidt et al., Oncogene 19, 2423-2429; 2000) using the Alamar Blue cell viability assay (described in O'Brien et al. Eur J Biochem 267, 5421-5426, 2000). The compounds are dissolved as 20 mM solutions in dimethylsulfoxide (DMSO) and subsequently diluted in semi-logarithmic steps. DMSO dilutions are further diluted 1:100 into Dulbecco's modified Eagle's medium (DMEM) containing 10% fetal calf serum to a final concentration twice as much as the final concentration in the test. RKO subclones are seeded into 96 well flat bottom plates at a density of 4000 cells per well in a volume of 50 µl per well. 24 hours after seeding the 50 μl each of the compound dilutions in DMEM medium are added into each well of the 96 Well plate. Each compound dilution is tested as quadruplicates. Wells containing untreated control cells are filled with 50 μl DMEM medium containing 1% DMSO. The cells are then incubated with the substances for 72 hours at 37° C. in a humidified atmosphere containing 5% carbon dioxide. To determine the viability of the cells, 10 μl of an Alamar Blue solution (Biosource) are added and the fluorescence is measured at an extinction of 544 nm and an emission of 590 nm. For the calculation of the cell viability the emission value from untreated cells is set as 100% viability and the emission rates of treated cells are set in relation to the values of untreated cells. Viabilities are expressed as % values.
The corresponding IC50 values of the compounds for anti-proliferative/cytotoxic activity are determined from the concentration-effect curves.
Representative IC50 values for anti-proliferation/cytotoxicity determined for the compounds mentioned and numbered as Examples in the examples above follow from the following table A (1st column), in which the numbers of the compound correspond to the numbers of the examples. Any or all of the compounds according to the present invention which are listed in the Table A, as well as their salts, are to be mentioned as a particular interesting subject of the present invention.

[2] = test system: RKO colon adenocarcinoma cells (RKOp27) arrested by expression of ectopic p27Kip1; assay: Alamar Blue cell viability assay, cell cycle specific mode of action, RKO p27 induced (arrested by Ponasterone A-induced p27Kip1); format: cell-based; conditions: Homo sapiens, RKOp27, 72 h, cells arrested by p27Kip1 induced with 10 μM Ponasterone A, 72 hours incubation
Description: To determine the cell cycle specific mode of action, subdlones of RKO colon adenocarcinoma cells (RKOp27 or RKOp21 as described by Schmidt et al. in Oncogene 19, 2423-2429; 2000) are seeded into 96 well flat bottom plates at a density of 16000 cells per well in a volume of 50 μl per well in DMEM growth medium with 10% FCS containing 10 μM Ponasterone A. 24 hours after seeding the 50 μl each of the compound dilutions in DMEM medium are added into each well of the 96 Well plate. Each compound dilution is tested as quadruplicates. Wells containing untreated control cells are filled with 50 μl DMEM medium containing 1% DMSO. The cells are then incubated with the substances for 72 hours at 37° C. in a humidified atmosphere containing 5% carbon dioxide. To determine the viability of the cells, 10 μl of an Alamar Blue solution (Biosource) are added and the fluorescence was measured at an extinction of 544 nm and an emission of 590 nm. For the calculation of the cell viability the emission value from untreated cells is set as 100% viability and the emission rates of treated cells are set in relation to the values of untreated cells. Viabilities are expressed as % values. Viability is compared of proliferating cells grown in the absence of the inducer Ponasterone A, versus viability of cells arrested by the expression of ectopic p27Kip1 induced by Ponasterone A. The data of this experimental setting are summarized in table A (2nd column).

SMILES	pIC50 [1]	pIC50 [2]
COc1ccc(S(=O)(=O)N2CCc3c(sc(NC(=O)c4ccccc4)c3C#N)C2)cc1 [Compound 79, N-[3-Cyano-6-(4-methoxy-benzenesulfonyl)-4,5,6,7-tetrahydro-thieno[2,3-c]pyridin-2-yl]-benzamide]	≥ 5.52	< 4.22
CC(=O)OCCCC(=O)N1CCc2c(sc(NC(=O)c3ccccc3)c2C#N)C1 [Compound 86, Acetic acid 4-{3-cyano-2-[(1-phenyl-methanoyl)-amino]4,7-dihydro-5H-thieno[2,3-c]pyridin-6-yl}-4-oxo-butyl ester]	≥ 5.52	< 4.00
CCOC(=O)N1CCc2c(sc(NC(=O)c3cccc(Cl)c3)c2C#N)C1 [Compound 48, 2-{[1-(3-Chloro-phenyl)-methanoyl]-amino}-3-cyano-4,7-dihydro-5H-thieno[2,3-c]pyridine-6-carboxylic acid ethyl ester]	≥ 5.52	< 4.22
COCCOCC(=O)N1CCc2c(sc(NC(=O)c3ccccc3)c2C#N)C1 [Compound 40]	≥ 5.52	< 4.22
N#Cc1c(NC(=O)c2ccccc2)sc2c1CCN(C(=O)CCNC(=N)N)C2 [Compound 39, N-[3-Cyano6-(3-guanidino-propanoyl)-4,5,6.7-tetrahydro-thieno[2,3-c]pyridin-2-yl]-benzamide]	≥ 5.52	< 4.22
N#Cc1c(NC(=O)c2ccccc2)sc2c1CCN(C(=O)OCCCN1CCOCC1)C2 [Compound 70, 3-Cyano-2-[(1-phenyl-methanoyl)-amino]-4,7-dihydro-5H-thieno[2,3-c]pyridine-6-carboxylic acid 3-morpholin-4-yl-propyl ester]	≥ 5.52	< 4.22
N#Cc1c(NC(=O)c2ccccc2)sc2c1CCN(C(=O)CCCc1cccs1)C2 [Compound 28, N-[3-Cyano6-(4-thiophen-2-yl-butanoyl)-4,5,6,7-tetrahydro-thieno[2,3-c]pryridin-2-yl]-benzamide]	≥ 5.70	< 4.00
CCOC(=O)N1CCc2c(sc(NC(=O)c3cccc(OC)c3)c2C#N)C1 [Compound 12, N-(6-Ethoxycarbonyl-3-cyano-4,5,6,7-tetrahydro-thieno[2,3-c]pyridin-2-yl)-3-methoxybenzamide]	≥ 5.70	< 4.00
CCSC(=O)N1CCc2c(sc(NC(=O)c3ccccc3)c2C#N)C1 [Compound 29, N-(3-Cyano-7-(ethylthiocarbonyl)-4,5,6,7-tetrahvdro-thieno[2,3-c]pyridin-2-yl)-benzamide]	≥ 5.70	< 4.00
CCCCCCOC(=O)N1CCc2c(sc(NC(=O)c3ccccc3)c2C#N)C1 [Compound 57, 3-Cyano-2-[(1-phenyl-methanoyl)-amino]-4,7-dihydro-5H-thieno[2,3-c]pyridine-6-carboxylic acid hexyl ester]	≥ 5.52	< 4.22
CCCOC(=O)N1CCc2c(sc(NC(=O)c3ccccc3)c2C#N)C1 [Compound 64, 3-Cyano-2-[(1-phenyl-methanoyl)-amino]-4,7-dihydro-5H-thieno[2,3-c]pyridine-6-carboxylic acid propyl ester]	≥ 5.52	< 4.22
N#Cc1c(NC(=O)c2ccccc2)sc2c1CCN(C(=O)OCc1ccccc1)C2 [Compound 61, 3-Cyano-2-[(1-phenyl-methanoyl)-amino]-4,7-dihydro-5H-thieno[2,3-c]pyridine-6-carboxylic acid benzyl ester]	≥ 5.52	< 4.22
CCOC(=O)N1CCc2c(sc(NC(=O)c3cccc(O)c3)c2C#N)C1 [Compound 53, 3-Cyano-2-{[1-(3-hydroxy-phenyl)-methanoyl]-amino}-4,7-dihydro-5H-thieno[2,3-c]pyridine-6-carboxylic acid ethyl ester]	≥ 5.52	< 4.22
N#Cc1c(NC(=O)c2ccccc2)sc2c1CCN(S(=O)(=O)c1ccc(N3CCOCC3)nc1)C2 [Compound 77, N-[3-Cyano-6-(6-morpholin-4-yl-pyridine-3-sulfonyl)-4,5,6,7-tetrahydro-thieno[2,3-c]pyridin-2-yl]-benzamide]	≥ 5.52	< 4.22
CCOC(=O)N1CCc2c(sc(NC(=O)c3ccc(OC)cc3)c2C#N)C1 [Compound 49, 3-Cyano-2-{[1-(4-methoxy-phenyl)-methanoyl]-amino}-4,7-dihydro-5H-thieno[2,3-c]pyridine-6-carboxylic acid ethyl ester]	≥ 5.52	< 4.22
N#Cc1c(NC(=O)c2ccccc2)sc2c1CCN(C(=O)OCc1ccccn1)C2 [Compound 62, 3-Cyano-2-[(1-phenyl-methanoyl)-amino]-4,7-dihydro-5H-thieno[2,3-c]pyridine-6-carboxylic acid pyridin-2-ylmethyl ester]	≥ 5.52	< 4.22
CC(=O)NCCOC(=O)N1CCc2c(sc(NC(=O)c3ccccc3)c2C#N)C1 [Compound 94, 3-Cyano-2-[(1-phenyl-methanoyl)-amino]4,7-dihydro-5H-thieno[2,3-c]pyridine-6-carboxylic acid 2-acetylamino-ethyl ester]	≥ 5.52	< 4.00
N#Cc1c(NC(=O)c2ccccc2)sc2c1CCN(C(=O)OCCCc1ccccn1)C2 [Compound 71, 3-Cyano-2-[(1-phenyl-methanoyl)-amino]-4,7-dihydro-5H-thieno[2,3-c]pyridine-6-carboxylic acid 3-pyridin-2-yl-propyl ester]	≥ 5.52	< 4.22
COc1ccc(OC(=O)N2CCc3c(sc(NC(=O)c4ccccc4)c3C#N)C2)cc1 [Compound 60, 3-Cyano-2-[(1-phenyl-methanoyl)-amino]-4,7-dihydro-5H-thieno[2,3-c]pyridine-6-carboxylic acid 4-methoxy-phenyl ester]	≥ 5.52	< 4.22
CCOC(=O)N1CCc2c(sc(NC(=O)c3cccc([N+](=O)[O-])c3)c2C#N)C1 [Compound 45, 3-Cyano-2{[1-(3-nitro-phenyl)-methanoyl]-amino}-4,7-dihydro-5H-thieno[2,3-c]pyridine-6-carboxylic acid ethyl ester]	≥ 5.52	< 4.22
CCCCCSC(=O)N1CCc2c(sc(NC(=O)c3ccccc3)c2C#N)C1 [Compound 101, 3-Cyano-2-[(1-phenyl-methanoyl)-amino]-4,7-dihydro-5H-thieno[2,3-c]pyridine6-carbothioic acid S-pentyl ester]	≥ 5.52	< 4.00
COC(=O)CCCC(=O)N1CCc2c(sc(NC(=O)c3ccccc3)c2C#N)C1 [Compound 38, 5-{3-Cyano-2-[(1-phenyl-methanoyl)-amino]-4,7-dihydro-5H-thieno[2,3-c]pyridin-6-yl}-5-oxo-pentanoic acid methyl ester]	≥ 5.52	< 4.22
COCC(=O)N1CCc2c(sc(NC(=O)c3ccccc3)c2C#N)C1 [Compound 32, N-[3-Cyano-6-(2-methoxy-ethanoyl)-4,6,7-tetrahydro-thieno[2,3-c]pyridin-2-yl]-benzamide]	≥ 5.52	< 4.22
CC1(C)OCC(COC(=O)N2CCc3c(sc(NC(=O)c4ccccc4)c3C#N)C2)O1 (centres unmarked) [Compound 74, 3-Cyano-2-[(1-phenyl-methanoyl)-amino]-4,7-dihydro-5H-thieno[2,3-c]pyridine-6-carboxylic acid 2,2-dimethyl-[1,3]dioxolan-4-ylmethyl ester]	≥ 5.52	< 4.22
N#Cc1c(NC(=O)c2ccccc2)sc2c1CCN(C(=O)CO)C2 [Compound 87, N-[3-Cyano-6-(2-hydroxy-ethanoyl)-4,5,6,7-tetrahydro-thieno[2,3-c]pyridin-2-yl]-benzamide]	≥ 5.52	< 4.00
